Test results as given in patent US20260335277A1, “CHLOROTONIL DERIVATIVES” (priority 2023, published 2026).
Converted amounts (≈) assume the structure as drawn. “And” between values parts separate entries of the source, which are not always exact repeats. Identical values can stand only once. “Also recorded” adds a separate entry of the source. Like-named read-outs stand apart in the source and are kept apart here.

Tests used:
[1] = test system: S. aureus Newman; test: MIC in presence of fetal bovine serum (FBS); type: cell-based; conditions: for MIC: Staphylococcus aureus, NEWMAN, read-out: MIC against S. aureus Newman
Description: Minimal inhibitory concentration (MIC) of the compounds in the present invention was determined using broth microdilution performed according to EUCAST guidelines (ISO20776-1:2019). S. aureus ATCC29213 and E. faecalis ATCC29212 served as quality control strains.

[2] = Aqueous solubility; type: physicochemical; conditions: for solubility thermodynamic: read-out: semi thermodynamic solubility
Description: (§1) Complementing the toxicity profiling, ADME properties of the lead dehalogenil were determined. This had not been possible for the first generation frontrunner ChB1-Epo2 or the natural product ChA because of their poor limit of detection. […] Across species (mouse, rat, human), metabolic stability is high while plasma stability is moderate. Besides, no hemolysis and no inhibition of the metabolically important enzyme CYP3A4 was observed by both dehalogenil and ChA. Plasma protein binding (PPB) is >99.4% in all species.

[3] = Plasma protein binding (PPB); type: in vitro ADME
Description: as §1

[4] = In vivo PK after peroral administration (soy oil); set-up: species or system mouse; conditions: for half-life / AUC(0-t) / Cmax / Tmax: mouse, plasma; for half-life: read-out: t1/2z (converted)
Description: Peroral administration was compared between dehalogenil and ChB1-Epo2. […] Clearance was slow (t1/2z 5.5 and 10 h for 10 and 50 mg/kg, respectively) but considerably higher than for ChB1-Epo2.

[5] = test system: S. aureus; test: Murine foreign body (catheter) infection model; type: in vivo, mouse
Description: In a murine model, infected catheter tubings were implanted under the rodent skin followed by subcutaneous treatment (once per day with 25 mg/kg for six days).
The infection was established using a bacterial inoculum of 1×10^4 colony-forming units (CFU) injected into the lumen of the implanted peripheral venous catheter tubing fragment. Dehalogenil (25 mg/kg) was administered s.c. once per day, starting at 3 h post infection. Linezolid (Zyvoxid, Pfizer) was used as a reference antibiotic. Six days post infection, mice were euthanized, edema sizes around the implanted catheter fragment determined (c), and the catheter fragments and surrounding tissues were explanted. Bacterial loads from catheter detached biofilms (a) and in surrounding tissue homogenates (b) were determined by CFU counting. The data represent the value of every individual animal (symbols) and the median (horizontal lines). […], **p<0.01, ***p<0.001 (Kruskal-Wallis tests followed by Dunn's post hoc test).

[6] = test system: S. aureus USA300LAC; test: S. aureus blood infection (sepsis) model; type: in vivo, mouse (CD-1); conditions: for survival: BID, until 3 days post infection
Description: Dehalogenil was further tested in a Staphylococcus blood infection (sepsis) model, alongside linezolid as reference compound. Mice were infected using S. aureus USA300LAC (10^8 CFU/animal) and subsequently treated with a daily total of 5, 10 or 25 mg/kg SC dehalogenil, split into two doses (8 h interval, BID regimen) until 3 days post infection.
Mice were infected intravenously using S. aureus USA300LAC (10^8 CFU/mice). Compounds were administered twice daily starting day 0 until day 3, with the daily total dose indicated. Curves were compared via Mantel-Cox test (Prism), with ***: p<0.001 and **: p<0.01.

[7] = test system: P. berghei; test: P. berghei parasite load in mice; type: in vivo, mouse
[8] = mice, oral, soy oil, vs ChB1-Epo2
[9] = po, mice, 10 mg/kg, mean (n = 3)
[10] = po, mice, 50 mg/kg, mean (n = 3)
[11] = 25 mg/kg SC once per day, six days

SMILES: CC1=CC(C)C2C(C=CC3C(C)C=CC=CC(C)OC(=O)C(C)C(=O)CC(=O)C32)C1 (stereo not shown) [dehalogenil]
- MIC ([1]; MHB2 + 5% FBS): 2 µg/mL
- MIC ([1]; MHB2 + 10% FBS): 4 µg/mL
- MIC ([1]; MHB2 + 20% FBS): 4 µg/mL
- MIC ([1]; MHB2 + 30% FBS): 8 µg/mL
- MIC ([1]; MHB2 + 40% FBS): 8 µg/mL
- MIC ([1]; MHB2 + 50% FBS): > 8 µg/mL
- MIC ([1]; MHB2, no FBS): 0.0625 µg/mL
- Activity in presence of FBS ([1]; above 20% FBS): remained active above 20% FBS
- solubility thermodynamic ([2]; pH 5.0): 34.9 ± 2.7 µM (≈ 14.3 µg/mL)
- solubility thermodynamic ([2]; pH 7.4): 41.4 ± 10.3 µM (≈ 17 µg/mL)
- Solubility increase compared to the natural product ChA ([2]; pH 7.4, vs ChA): more than 500 fold
- solubility thermodynamic ([2]; pH 9.0): 16.5 ± 8.7 µM (≈ 6.77 µg/mL)
- Solubility compared to ChB1-Epo2 ([2]; vs ChB1-Epo2, aqueous): more than doubled; also recorded: doubled aqueous solubility
- fraction unbound ([3]; human, all species: human, read-out: Plasma protein binding (PPB)): < 0.006
- fraction unbound ([3]; human, read-out: plasma protein binding): < 0.004
- fraction unbound ([3]; mouse, all species: mouse, read-out: Plasma protein binding (PPB)): < 0.006
- fraction unbound ([3]; mouse, read-out: plasma protein binding): < 0.002
- tz ([4]; mice, 10 mg/kg, p.o., mean (n = 3)): 24 h
- tz ([4]; mice, 50 mg/kg, p.o., mean (n = 3)): 24 h
- AUC0-tz compared to ChB1-Epo2 [4, 8]: ca. six-fold higher
- cmax compared to ChB1-Epo2 [4, 8]: ca. four-fold higher
- Clearance ([4]; mice, po, soy oil): slow
- half-life ([4]; po, 10 mg/kg, mice, 10 mg/kg po, soy oil): 5.5 h
- half-life ([4]; po, 10 mg/kg, mice, 10 mg/kg, p.o., mean (n = 3)): 5.5 h
- half-life ([4]; po, 50 mg/kg, mice, 50 mg/kg po, soy oil): 10 h
- half-life ([4]; po, 50 mg/kg, mice, 50 mg/kg, p.o., mean (n = 3)): 10.2 h
- AUC(0-t) [4, 9]: 3020 ng·h/mL
- Cmax [4, 9]: 261 ng/mL
- Tmax [4, 9]: 3 h
- AUC(0-t) [4, 10]: 8360 ng·h/mL
- Cmax [4, 10]: 579 ng/mL
- Tmax [4, 10]: 3 h
- higher plasma levels ([4]; rodents, comparator chlorotonil B1-Epo2 (implied)): 3 fold
- reduction in bacterial loads in the tissues surrounding the catheter fragments [5, 11]: > 3 log10 and 3.24 log10
- reduction in bacterial loads on the catheter fragments [5, 11]: > 3 log10 and 3.85 log10
- bacterial load at the site of infection and on the implant ([5]; 6×25 mg/kg SC): significantly reducing bacterial loads
- survival ([6]; 10 mg/kg daily total SC): 80%
- survival ([6]; 25 mg/kg daily total SC): 90%
- survival rates compared to linezolid ([6]; 10 and 25 mg/kg SC vs linezolid 60 mg/kg): increased survival rates comparable to a higher dose of linezolid
- reduction of P. berghei parasite load [7]: > 99%
